Patent publication US20240208961A1, “EIF4E INHIBITORS AND USES THEREOF” (PIC Therapeutics, Inc., priority 2022, published 2024)
Where “and” joins values, the source holds several entries; their conditions need not be identical. Equal entries are not always repeated. Where two headings read alike, the source gives them in different places.

Key:
[1] = Pharmacokinetic studies of certain compounds in female Balb/c mice (Example 5); assay type: in vivo
Outline: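 Female Balb/c mice (N=9) were fasted overnight and given compound PO as a suspension in 1% CMC/0.2% Tween 80 or IV in 5% DMSO/5% Solutol HS15/90% saline. Facial-vein plasma was taken from 0.083 to 24 h and assayed by LC-MS. Parameters are non-compartmental, and F was based on AUCINF or AUClast.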

ZR-75-1 = assay: Cell viability assay, adherent cell line, 5 day Alamar Blue (Example 8): ZR-75-1; assay type: cell-based; conditions: Homo sapiens, 120 h, ZR-75-1, Breast Cancer Cell Viability
[2] = I-29 IV 1.48 mg/kg, 4 hr, BQL = below quantifiable limit of 3.00 ng/mL
[3] = I-29 IV 1.48 mg/kg, 8 hr, BQL = below quantifiable limit of 3.00 ng/mL
[4] = I-29 IV 1.48 mg/kg, 24 hr, BQL = below quantifiable limit of 3.00 ng/mL
[5] = I-29 PO 23.8 mg/kg, 24 hr, BQL = below quantifiable limit of 3.00 ng/mL
[6] = mouse, plasma, I-29 IV 1.48 mg/kg
[7] = mouse, plasma, I-29 PO 23.8 mg/kg

For `CC(C)Cc1sc(Nc2ncc(-c3cccs3)cc2C(=O)O)nc1C1CCC(F)(F)CC1` [Compound I-29], the “Plasma concentration Individual” value ([1]; I-29 IV 1.48 mg/kg, 0.083 hr, 1.48 mg/kg) was 641 ng/mL and 603 ng/mL, the “Plasma concentration Individual” value ([1]; I-29 IV 1.48 mg/kg, 0.25 hr, 1.48 mg/kg) was 121 ng/mL and 162 ng/mL and 336 ng/mL and the “Plasma concentration Individual” value ([1]; I-29 IV 1.48 mg/kg, 0.5 hr, 1.48 mg/kg) was 71.2 ng/mL and 51.0 ng/mL. For the same molecule, the “Plasma concentration Individual” value ([1]; I-29 IV 1.48 mg/kg, 1 hr, 1.48 mg/kg) was 15.9 ng/mL and 81.1 ng/mL and 29.6 ng/mL, the “Plasma concentration Individual” value ([1]; I-29 IV 1.48 mg/kg, 2 hr, 1.48 mg/kg) was 3.54 ng/mL and 4.97 ng/mL and 7.24 ng/mL and the “Plasma concentration Individual” value [1, 2] was “BQL”. The “Plasma concentration Mean” value [1, 2] was “BQL”, the “Plasma concentration Individual” value [1, 3] was “BQL” and the “Plasma concentration Mean” value [1, 3] was “BQL”. The “Plasma concentration Individual” value [1, 4] was “BQL”, the “Plasma concentration Mean” value [1, 4] was “BQL” and the F ([1]; I-29 PO 23.8 mg/kg vs IV 1.48 mg/kg) was 67.3%. For the same molecule, the “Plasma concentration Individual” value ([1]; I-29 PO 23.8 mg/kg, 0.083 hr, 23.8 mg/kg) was 39.6 ng/mL and 53.6 ng/mL, the “Plasma concentration Individual” value ([1]; I-29 PO 23.8 mg/kg, 0.25 hr, 23.8 mg/kg) was 147 ng/mL and 146 ng/mL and the “Plasma concentration Individual” value ([1]; I-29 PO 23.8 mg/kg, 0.5 hr, 23.8 mg/kg) was 344 ng/mL and 464 ng/mL. The “Plasma concentration Individual” value ([1]; I-29 PO 23.8 mg/kg, 1 hr, 23.8 mg/kg) was 237 ng/mL and 618 ng/mL and 703 ng/mL, the “Plasma concentration Individual” value ([1]; I-29 PO 23.8 mg/kg, 2 hr, 23.8 mg/kg) was 620 ng/mL and 640 ng/mL and the “Plasma concentration Individual” value ([1]; I-29 PO 23.8 mg/kg, 4 hr, 23.8 mg/kg) was 147 ng/mL and 218 ng/mL. The “Plasma concentration Individual” value ([1]; I-29 PO 23.8 mg/kg, 8 hr, 23.8 mg/kg) was 106 ng/mL and 75.9 ng/mL, the “Plasma concentration Individual” value [1, 5] was “BQL” and the “Plasma concentration Mean” value [1, 5] was “BQL”. It also gave a concentration at 0.083 hr ([1]; female, Balb/c, mouse, plasma, iv, 1.48 mg/kg, I-29 IV 1.48 mg/kg, 0.083 hr, read-out: Plasma concentration Individual) of 558 ng/mL, a concentration at 0.083 hr ([1]; female, Balb/c, mouse, plasma, iv, 1.48 mg/kg, I-29 IV 1.48 mg/kg, 0.083 hr, read-out: Plasma concentration Mean) of 601 ng/mL and a concentration at 0.25 hr ([1]; female, Balb/c, mouse, plasma, iv, 1.48 mg/kg, I-29 IV 1.48 mg/kg, 0.25 hr, read-out: Plasma concentration Mean) of 206 ng/mL. It also gave a concentration at 0.5 h ([1]; female, Balb/c, mouse, plasma, iv, 1.48 mg/kg, I-29 IV 1.48 mg/kg, 0.5 hr, read-out: Plasma concentration Individual) of 95.5 ng/mL, a concentration at 0.5 h ([1]; female, Balb/c, mouse, plasma, iv, 1.48 mg/kg, I-29 IV 1.48 mg/kg, 0.5 hr, read-out: Plasma concentration Mean) of 72.6 ng/mL and a concentration at 1 h ([1]; female, Balb/c, mouse, plasma, iv, 1.48 mg/kg, I-29 IV 1.48 mg/kg, 1 hr, read-out: Plasma concentration Mean) of 42.2 ng/mL. It also gave a concentration at 2 hr ([1]; female, Balb/c, mouse, plasma, iv, 1.48 mg/kg, I-29 IV 1.48 mg/kg, 2 hr, read-out: Plasma concentration Mean) of 5.25 ng/mL, a concentration at 0.083 hr ([1]; female, Balb/c, mouse, plasma, po, 23.8 mg/kg, I-29 PO 23.8 mg/kg, 0.083 hr, read-out: Plasma concentration Individual) of 31.6 ng/mL and a concentration at 0.083 hr ([1]; female, Balb/c, mouse, plasma, po, 23.8 mg/kg, I-29 PO 23.8 mg/kg, 0.083 hr, read-out: Plasma concentration Mean) of 41.6 ng/mL. For the same molecule, the concentration at 0.25 hr ([1]; female, Balb/c, mouse, plasma, po, 23.8 mg/kg, I-29 PO 23.8 mg/kg, 0.25 hr, read-out: Plasma concentration Individual) was 160 ng/mL, the concentration at 0.25 hr ([1]; female, Balb/c, mouse, plasma, po, 23.8 mg/kg, I-29 PO 23.8 mg/kg, 0.25 hr, read-out: Plasma concentration Mean) was 151 ng/mL and the concentration at 0.5 hr ([1]; female, Balb/c, mouse, plasma, po, 23.8 mg/kg, I-29 PO 23.8 mg/kg, 0.5 hr, read-out: Plasma concentration Individual) was 305 ng/mL. For the same molecule, the concentration at 0.5 hr ([1]; female, Balb/c, mouse, plasma, po, 23.8 mg/kg, I-29 PO 23.8 mg/kg, 0.5 hr, read-out: Plasma concentration Mean) was 371 ng/mL, the concentration at 1 hr ([1]; female, Balb/c, mouse, plasma, po, 23.8 mg/kg, I-29 PO 23.8 mg/kg, 1 hr, read-out: Plasma concentration Mean) was 519 ng/mL and the concentration at 2 hr ([1]; female, Balb/c, mouse, plasma, po, 23.8 mg/kg, I-29 PO 23.8 mg/kg, 2 hr, read-out: Plasma concentration Individual) was 554 ng/mL. The concentration at 2 hr ([1]; female, Balb/c, mouse, plasma, po, 23.8 mg/kg, I-29 PO 23.8 mg/kg, 2 hr, read-out: Plasma concentration Mean) was 605 ng/mL, the concentration at 4 hr ([1]; female, Balb/c, mouse, plasma, po, 23.8 mg/kg, I-29 PO 23.8 mg/kg, 4 hr, read-out: Plasma concentration Individual) was 187 ng/mL and the concentration at 4 hr ([1]; female, Balb/c, mouse, plasma, po, 23.8 mg/kg, I-29 PO 23.8 mg/kg, 4 hr, read-out: Plasma concentration Mean) was 184 ng/mL. It also gave a concentration at 8 hr ([1]; female, Balb/c, mouse, plasma, po, 23.8 mg/kg, I-29 PO 23.8 mg/kg, 8 hr, read-out: Plasma concentration Individual) of 57.1 ng/mL, a concentration at 8 hr ([1]; female, Balb/c, mouse, plasma, po, 23.8 mg/kg, I-29 PO 23.8 mg/kg, 8 hr, read-out: Plasma concentration Mean) of 79.7 ng/mL and an AUC(0-inf) [1, 6] of 225 ng·h/mL. It also gave an AUC(0-t) [1, 6] of 222 ng·h/mL, a C0 [1, 6] of 1020 ng/mL and an MRT inf [1, 6] of 0.33 h. For the same molecule, the MRT last [1, 6] was 0.304 h, the clearance [1, 6] was 110 mL/min/kg and the half-life [1, 6] was 0.352 h. The Vd ([1]; mouse, plasma, I-29 IV 1.48 mg/kg, read-out: Vss) was 2.18 L/kg, the AUC(0-inf) [1, 7] was 2430 ng·h/mL and the AUC(0-t) [1, 7] was 2180 ng·h/mL. It also gave a Cmax [1, 7] of 605 ng/mL, an MRT inf [1, 7] of 3.51 h and an MRT last [1, 7] of 2.64 h. For the same molecule, the Tmax [1, 7] was 2 h, the half-life [1, 7] was 2.17 h and the IC50 (ZR-75-1) was at most 1000 nM.
